# Results from US20260062420A1, “NOVEL DPP1 INHIBITORS AND USES THEREOF” (Insmed Incorporated, priority 2022, published 2026).
# Read-outs that look alike come from different tables or passages of the source.
# Assays:
# active mouse DPP1 enzyme = active mouse DPP1 enzyme (Mus musculus (Mouse), UniProt P97821); test: Mouse DPP1 Enzyme IC50 Assay; type: biochemical
# Method: Test articles were applied to active mouse DPP1 enzyme (R&D Systems; Minneapolis, MN) in Assay Buffer (50 mM MES pH 5.5, 50 mM NaCl, 5 mM DTT) in a total reaction volume of 125 μL. 25 μL of compound in Assay Buffer plus 5% DMSO was first added to 50 μL of active mouse DPP1 enzyme at a concentration of 62.5 pg/μL and allowed to pre-incubate for 10 minutes at 37° C. after which 50 μL of 1000 μM H-Gly-Arg-AMC substrate (Bachem; St. Torrance, CA) was added, giving final substrate concentration of 400 μM and a final DMSO concentration of 1%. Substrate cleavage was measured for 90 minutes at 37° C., with fluorescence at Excitation/Emission 350/450 nm measured every 5 minutes. DPP1 concentration was interpolated based on its activity relative to a standard curve of recombinant active mouse DPP1 enzyme. IC50 values for each compound were calculated via the XLFit (IDBS Version 5.3.1.3) Add-On to Microsoft Excel using the four parameter fit equation y=(A+((B−A)/(1+((C/x)^D)))), which appears as equation number 205 (4 Parameter Logistic Model or Sigmoidal Dose-Response Model) in XLFit. Default constraints were used for each Parameter. IC50 was defined as the compound concentration at which 50% of enzyme activity was inhibited when compared to the no-compound control.
# [1] = target: Recombinant human DPP1 enzyme (Homo sapiens (Human), UniProt P53634); test: Human DPP1 Enzyme IC50 Assay; type: biochemical
# Method: Recombinant human DPP1 enzyme (R&D Systems; Minneapolis, MN) was first proteolytically processed into its mature form using recombinant human cathepsin L (R&D Systems) in a buffer consisting of 20 mM citric acid pH 4.5, 150 mM NaCl, 1 mM EDTA and 10 mM DTT. Test articles were applied to activated human DPP1 enzyme in Assay Buffer (25 mM MES pH 6.0, 50 mM NaCl, 5 mM DTT) in a total reaction volume of 125 μL. 25 μL of compound in Assay Buffer plus 5% DMSO was first added to 50 μL of activated human DPP1 enzyme at a concentration of 1 ng/μL and allowed to pre-incubate for 10 minutes at 37° C. after which 50 μL of 1000 μM H-Gly-Arg-AMC substrate (Bachem; St. Torrance, CA) was added, giving final substrate concentration of 400 μM and a final DMSO concentration of 1%. Substrate cleavage was measured for 90 minutes at 37° C., with fluorescence at Excitation/Emission 350/450 nm measured every 5 minutes. DPP1 concentration was interpolated based on its activity relative to a standard curve of activated human recombinant DPP1 enzyme. IC50 values for each compound were calculated via the XLFit (IDBS Version 5.3.1.3) Add-On to Microsoft Excel using the four parameter fit equation y={A+[(B−A)]/[1+((C/x)^D)]}, which appears as equation number 205 (4 Parameter Logistic Model or Sigmoidal Dose-Response Model) in XLFit. Default constraints were used for each Parameter.
# [2] = mouse DPP1 enzyme, Table 16, read-out: IC50, nM, Mouse
# [3] = human DPP1 enzyme, Table 16, read-out: IC50, nM, Human
# [4] = figure legends FIG. 12 and 13, read-out: IC50, in vitro inhibition of mouse DPP1
# [5] = mouse DPP1 enzyme, H-Gly-Arg-AMC substrate 400 μM, Table 13, read-out: IC50
# [6] = figure legends FIG. 14 and 15, read-out: IC50, in vitro inhibition of human DPP1
# Recombinant human DPP1 enzyme, sequence (P53634 25-134): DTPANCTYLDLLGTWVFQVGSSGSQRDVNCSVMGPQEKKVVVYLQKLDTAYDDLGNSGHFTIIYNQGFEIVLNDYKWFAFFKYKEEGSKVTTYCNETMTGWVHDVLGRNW
# Recombinant human DPP1 enzyme, sequence (P53634 231-394): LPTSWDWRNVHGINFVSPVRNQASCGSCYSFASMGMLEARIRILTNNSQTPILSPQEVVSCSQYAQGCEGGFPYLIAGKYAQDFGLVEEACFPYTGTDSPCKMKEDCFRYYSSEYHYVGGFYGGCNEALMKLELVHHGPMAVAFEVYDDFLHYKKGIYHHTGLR
# Recombinant human DPP1 enzyme, sequence (P53634 395-463): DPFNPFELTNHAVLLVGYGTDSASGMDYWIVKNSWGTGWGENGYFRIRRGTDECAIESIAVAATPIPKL
# active mouse DPP1 enzyme, sequence (P97821 25-134): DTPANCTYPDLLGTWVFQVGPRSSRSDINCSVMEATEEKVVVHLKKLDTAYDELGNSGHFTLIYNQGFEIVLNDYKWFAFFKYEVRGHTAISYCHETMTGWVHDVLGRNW
# active mouse DPP1 enzyme, sequence (P97821 231-393): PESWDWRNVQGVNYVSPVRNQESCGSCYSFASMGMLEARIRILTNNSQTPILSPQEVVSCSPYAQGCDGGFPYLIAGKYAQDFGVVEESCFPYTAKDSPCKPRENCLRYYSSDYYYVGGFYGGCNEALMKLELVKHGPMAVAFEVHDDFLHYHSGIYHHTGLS
# active mouse DPP1 enzyme, sequence (P97821 394-462): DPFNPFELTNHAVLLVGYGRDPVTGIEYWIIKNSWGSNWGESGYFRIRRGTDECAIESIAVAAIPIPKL
IC50 (active mouse DPP1 enzyme; [2]) [nM],"IC50 [1, 3] [nM]",SMILES,further results
> 5000,> 5000,Cn1c(=O)oc2ccc(-c3ccc(C[C@@H](C#N)NC(=O)[C@H]4C[C@@H]5COC[C@@H]5N4)cc3)cc21,–
> 5000,> 5000,Cn1c(=O)oc2ccc(-c3ccc(C[C@@H](C#N)NS(N)(=O)=O)cc3)cc21,–
> 5000,> 5000,Cn1c(=O)oc2ccc(-c3ccc(C[C@@H](C#N)NC(=O)C4CCC(N)C4)cc3)cc21 (some centres unmarked),–
2,2.3,C=C1Oc2ccc(-c3ccc(C[C@@H](C#N)NC(=O)C4CNC[C@H](O)CO4)cc3)cc2N1C (some centres unmarked),–
> 5000,> 5000,C=C1Oc2ccc(-c3ccc(C[C@@H](C#N)NC(=O)C4CC5NCCCC5N4)cc3)cc2N1C (some centres unmarked),–
366,2270,N#Cc1ccc(-c2ccc(C[C@@H](C#N)NC(=O)[C@@H]3C[C@@H]4COC[C@@H]4N3)s2)cc1,–
247,589,Cn1c(=O)oc2ccc(-c3ccc(C[C@@H](C#N)NC(=O)[C@@H]4C[C@@H]5COC[C@@H]5N4)s3)cc21,–
2770,3660,Cn1c(=O)oc2ccc(-c3ccc(C[C@@H](C#N)NC(=O)C4(CN)CCC4)cc3)cc21,–
4930,> 5000,Cn1c(=O)oc2ccc(-c3ccc(C[C@@H](C#N)NC(=O)C4CNC4)s3)cc21,–
–,2610,N#Cc1ccc(-c2ccc(C[C@@H](C#N)NC(=O)C3C[C@@H]4COC[C@@H]4N3)cc2)cc1 (some centres unmarked),–
> 5000,> 5000,CN1COc2ccc(-c3ccc(C[C@@H](C#N)NS(=O)(=O)CCNC4CCCC4)cc3)cc21,–
–,> 5000,C=C1Oc2ccc(-c3ccc(C[C@@H](C#N)NC(=O)CC4(N)CCCS(=O)(=O)C4)cc3)cc2N1C (some centres unmarked),–
583,745,CO[C@H]1CNC[C@@H](C(=O)N[C@H](C#N)Cc2ccc(-c3ccc4oc(=O)n(C)c4c3)cc2)OC1,–
19.6,30.4,Cn1c(=O)oc2ccc(-c3ccc(C[C@@H](C#N)NC(=O)[C@@H]4C[C@H]5C[C@H]5N4)cc3)cc21 [drawing 1152],–
–,1040,Cn1c(=O)oc2ccc(-c3ccc(CC(C#N)NC(=O)[C@@]4(C)CNCCO4)cc3)cc21 (some centres unmarked),–
> 5000,> 5000,Cn1c(=O)oc2ccc(-c3ccc(C[C@@H](C#N)NS(=O)(=O)CCN)cc3)cc21,–
–,4480,C[C@H]1NCCC[C@H]1C(=O)N[C@H](C#N)Cc1ccc(-c2ccc3oc(=O)n(C)c3c2)cc1,–
–,1660,Cn1c(=O)oc2ccc(-c3ccc(CC(C#N)NC(=O)C4CNC4)cc3)cc21 (centres unmarked),–
27,–,Cn1c(=O)oc2ccc(-c3ccc(C[C@@H](C#N)NC(=O)[C@@H]4CNCCCO4)cc3)cc21 [drawing 1149],–

# The remaining lines, values behind:
SMILES,IC50 (active mouse DPP1 enzyme; [2]) [nM],"IC50 [1, 3] [nM]",further results
Cn1c(=O)oc2ccc(-c3ccc(C[C@@H](C#N)NC(=O)C4C=CCNC4)cc3)cc21 (some centres unmarked),> 5000,> 5000,–
Cn1c(=O)oc2ccc(-c3ccc(C[C@@H](C#N)NC(=O)CC4COCCN4)cc3)cc21 (some centres unmarked),> 5000,> 5000,–
Cn1c(=O)oc2ccc(-c3ccc(C[C@@H](C#N)NC(=O)C4CC=CCNC4)cc3)cc21 (some centres unmarked),1900,1760,–
Cn1c(=O)oc2ccc(-c3ccc(C[C@@H](C#N)NC(=O)CC4CCCN4)cc3)cc21 (some centres unmarked),> 5000,> 5000,–
Cn1c(=O)oc2ccc(-c3ccc(C[C@@H](C#N)NC(=O)C4CC5CCN4CC5)cc3)cc21 (some centres unmarked),> 5000,> 5000,–
Cn1c(=O)oc2ccc(-c3ccc(C[C@@H](C#N)NC(=O)[C@@H]4C[C@H]5COC[C@H]5N4)cc3)cc21 [drawing 1154],45.6,69.2,–
N#Cc1ccc(-c2ccc(C[C@@H](C#N)NC(=O)[C@@H]3C[C@@H]4COC[C@@H]4N3)c(F)c2)cc1,107,526,–
N#Cc1ccc(-c2ccc(C[C@@H](C#N)NC(=O)[C@@H]3C[C@H]4COC[C@H]4N3)cc2)cc1 [drawing 1153],209,269,–
Cn1c(=O)oc2ccc(-c3ccc(C[C@@H](C#N)NC(=O)C4(C)CNCCO4)cc3)cc21 (some centres unmarked),3160,2180,–
"N#Cc1ccc(-c2ccc(C[C@@H](C#N)NC(=O)[C@@H]3C[C@H]4COC[C@H]4N3)cc2)cc1 [IWD-004, (2S,3αR,6αS)—N—((S)-1-cyano-2-(4′-cyano-[1,1′-biphenyl]-4-yl)ethyl)hexahydro-1H-furo[3,4-b]pyrrole-2-carboxamide]",–,–,"IC50 (active mouse DPP1 enzyme; [4]): 209 nM; IC50 (active mouse DPP1 enzyme; [5]): 209 nM; IC50 [1, 6]: 245 nM"
[2H]C([2H])([2H])n1c(=O)oc2ccc(-c3ccc(C[C@@H](C#N)NC(=O)[C@@H]4C[C@@H]5COC[C@@H]5N4)s3)cc21,–,664,–
Cn1c(=O)oc2ccc(-c3ccc(C[C@@H](C#N)NC(=O)CC4(N)CCOC4)cc3)cc21 (some centres unmarked),3290,2540,–
"Cn1c(=O)oc2ccc(-c3ccc(C[C@@H](C#N)NC(=O)[C@@H]4C[C@H]5COC[C@H]5N4)cc3)cc21 [IWD-005, (2S,3αR,6αS)—N—((S)-1-cyano-2-(4-(3-methyl-2-oxo-2,3-dihydrobenzo[d]oxazol-5-yl)phenyl)ethyl)hexahydro-1H-furo[3,4-b]pyrrole-2-carboxamide]",–,–,"IC50 (active mouse DPP1 enzyme; [4]): 45.6 nM; IC50 (active mouse DPP1 enzyme; [5]): 45.6 nM; IC50 [1, 6]: 69.2 nM; IC50 ([1]; human DPP1 enzyme, H-Gly-Arg-AMC substrate 400 μM, Table 14, read-out: IC50): 69.2 nM"
Cn1c(=O)oc2ccc(-c3ccc(CC(C#N)NC(=O)[C@H]4CCNC[C@@H]4N)cc3)cc21 (some centres unmarked),> 5000,> 5000,–
N#Cc1ccc(-c2ccc(C[C@@H](C#N)NC(=O)C3CNC3)s2)cc1,> 5000,> 5000,–
[2H]C([2H])([2H])n1c(=O)oc2ccc(-c3ccc(C[C@@H](C#N)NC(=O)C4CNC4)s3)cc21,–,4940,–
C[C@@H]1NCCC[C@@H]1C(=O)N[C@H](C#N)Cc1ccc(-c2ccc3oc(=O)n(C)c3c2)cc1,–,1320,–
Cn1c(=O)oc2ccc(-c3ccc(C[C@@H](C#N)NC(=O)[C@@H]4C[C@@H]5COC[C@@H]5N4)cc3)cc21 [drawing 1156],–,940,–
Cn1c(=O)oc2ccc(-c3ccc(C[C@@H](C#N)NC(=O)C4CNCC45CCC5)cc3)cc21 (some centres unmarked) [drawing 1229],–,1220,–
Cn1c(=O)oc2ccc(-c3ccc(C[C@@H](C#N)NC(=O)[C@@H]4CNCCCO4)c(F)c3)cc21,8.1,–,–
N#Cc1ccc(-c2ccc(C[C@@H](C#N)NC(=O)C3CNC3)cc2)cc1,4350,> 5000,–
Cn1c(=O)oc2ccc(-c3ccc(C[C@@H](C#N)NC(=O)[C@]4(C)CNCCO4)cc3)cc21,–,> 5000,–
N#Cc1ccc(-c2ccc(C[C@@H](C#N)NC(=O)C3CNC3)c(F)c2)cc1,1850,1560,–
[2H]C([2H])([2H])n1c(=O)oc2ccc(-c3ccc(C[C@@H](C#N)NC(=O)C4CNC4)cc3)cc21,–,1510,–
"Cn1c(=O)oc2ccc(-c3ccc(C[C@@H](C#N)NC(=O)[C@@H]4CNCCCO4)cc3)cc21 [brensocatib, reference compound]",–,–,IC50 (active mouse DPP1 enzyme; [4]): 24.3 nM; IC50 (active mouse DPP1 enzyme; [5]): 24.3 nM
